Test results reported in article PMC8627988 (Molecular Metabolism, 2021).

Target: T1, PPARγ (Homo sapiens, UniProt P37231)
T1 sequence (P37231 235-505 limits assumed): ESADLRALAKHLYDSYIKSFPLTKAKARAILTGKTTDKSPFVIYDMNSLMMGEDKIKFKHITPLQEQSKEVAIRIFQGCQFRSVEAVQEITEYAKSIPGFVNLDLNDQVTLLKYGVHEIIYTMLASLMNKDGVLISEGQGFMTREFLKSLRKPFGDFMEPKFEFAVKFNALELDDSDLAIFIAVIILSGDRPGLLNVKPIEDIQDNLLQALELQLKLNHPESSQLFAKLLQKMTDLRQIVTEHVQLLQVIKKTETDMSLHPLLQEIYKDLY
Assay: fluorescence polarization competition binding

- IC50: ~11 nM
SMILES: Cc1c(C)n(Cc2ccc(-c3ccccc3C(=O)O)cc2)c2ccc(C(=O)NCc3cccc(O)c3)cc12 [WO95E, 4'-((5-((3-hydroxybenzyl)carbamoyl)-2,3-dimethyl-1H-indol-1-yl)methyl)-[1,1′-biphenyl]-2-carboxylic acid]
